In patent publication US4806604A, “Photosensitive calcium chelators” (Regents of the University of California, priority 1987, dated 1989):
Where two headings read alike, the source gives them in different places.

How the values were obtained:
[1] = Ca^2+ affinity (dissociation constant) of the chelators; format: binding; details: for Ca^2+ affinity (rank in words): conformational explanation of Table I
[2] = Mg^2+ affinity (dissociation constant) of the chelators; format: binding
[3] = Ca^2+:Mg^2+ selectivity (rejection of Mg^2+); format: binding; details: 22° C., 0.1M ionic strength
[4] = Release of Ca^2+ after flash photolysis; details: after a submillisecond light flash
[5] = EDTA analogs vs EDTA parent; cited from earlier work
[6] = Tsien, 1980; read-out: Kd (Ca^2+); cited from earlier work
[7] = cytosolic free calcium 2+ typical for resting cells; cited from earlier work

Cc1ccc(N(CC(=O)O)CC(=O)O)c(O[C@@H]2CCC[C@@H]2Oc2cc(C(=O)c3cc4c(cc3N=O)OCO4)ccc2N(CC(=O)O)CC(=O)O)c1 (relative stereo) [VIII]
Kd ([1]; after photolysis of nitr-7 to the nitrosobenzophenone, read-out: dissociation constant for Ca^2+ upon photolysis): 3 µM

Cc1ccc(N(CC(=O)O)CC(=O)O)c(O[C@@H]2CCC[C@@H]2Oc2ccccc2N(CC(=O)O)CC(=O)O)c1 (relative stereo) [Va]
Kd ([1]; Table I, Chelator V after saponification, before photolysis, read-out: Kd for Ca^2+): 0.02 µM
Ca^2+ affinity (rank in words) [1]: highest Ca^2+ affinities
higher affinity for Ca^2+ than the trans-isomer ([1]; cyclopentanediyl series, cis (Va) vs trans (Vb)): 300 -fold
Kd ([2]; Table I, Chelator V after saponification, read-out: Kd for Mg^2+): 4200 µM

Cc1ccc(N(CC(=O)O)CC(=O)O)c(O[C@H]2CCC[C@H]2Oc2cc(C(O)c3cc4c(cc3[N+](=O)[O-])OCO4)ccc2N(CC(=O)O)CC(=O)O)c1 (relative stereo) [nitr-7, cis-1-(2-bis(carboxymethyl)amino-5-(1-hydroxy-1-(2-nitro-4,5-methylenedioxyphenyl)methyl)phenoxy)-2-(2-bis(carboxymethyl)amino-5-methylphenoxy)cyclopentane]
Kd ([1]; 22° C., 0.1M ionic strength, before photolysis, read-out: dissociation constant for Ca^2+): 0.053 µM
Ca^2+ affinity (rank in words) [1]: highest Ca^2+ affinities
Rejection of Mg^2+ [3]: > 10^5
exponential time constant of Ca^2+ release [4]: 1.8 millisecond
Kd ([2]; 22° C., 0.1M ionic strength, read-out: dissociation constant for Mg^2+): 5700 µM

O=C(O)CN(CC(=O)O)[C@H]1CCCC[C@@H]1N(CC(=O)O)CC(=O)O (relative stereo) [trans-cyclohexanediyl analog]
stronger Ca^2+ affinity than the parent [5]: 324 -fold

O=C(O)CN(CC(=O)O)[C@H]1CCC[C@@H]1N(CC(=O)O)CC(=O)O (relative stereo) [trans-cyclopentanediyl analog]
higher affinity for Ca^2+ than the parent [5]: 3.7 -fold

O=C(O)CN(CC(=O)O)c1ccccc1OCCOc1ccccc1N(CC(=O)O)CC(=O)O [BAPTA, 1,2-bis(2-aminophenoxy)ethane N,N,N'N'-tetraacetic acid]
Kd [6]: 0.1 µM

O=C(O)CN(CC(=O)O)[C@@H]1CCCC[C@@H]1N(CC(=O)O)CC(=O)O [cis-cyclohexanediyl analog]
weaker Ca^2+ affinity than the parent [5]: 17 -fold

COC(c1ccc(N(CC(=O)O)CC(=O)O)c(OCCOc2cc(C)ccc2N(CC(=O)O)CC(=O)O)c1)c1cc2c(cc1[N+](=O)[O-])OCO2 (stereo not drawn) [nitr-2]
fraction of unphotolyzed chelator molecules bearing calcium 2+ ions [7]: 1/2
